Results from patent US10857102B2, “Therapeutic compositions comprising rilpivirine HCL and tenofovir disoproxil fumarate” (priority 2010, dated 2020).

Assay: Rilpivirine dissolution rate (laboratory data, FIG. 9)
Type: physicochemical
Text: Formulation 3 and Formulation 4 differ in the weight of extragranular excipients and in the amount of croscarmellose sodium present. […] It may be postulated that the higher amounts of diluents in the rilpivirine layer of Formulation 3 that was bioequivalent to the rilpivirine single agent reference tablet could have served to lessen the extent of contact and interactions between rilpivirine and emtricitabine and/or tenofovir DF and achieve bioequivalence.
In addition, the higher amount of croscarmellose sodium, a superdisintegrant, leads to faster layer disintegration and separation of the rilpivirine layer from the emtricitabine/tenofovir DF layer minimizing any potential interactions between rilpivirine with emtricitabine and/or tenofovir DF. […] This is possibly due to the basifying nature of this excipient.

**Q.** Which rilpivirine dissolution rate (higher concentrations of croscarmellose sodium in the rilpivirine layer, FIG. 9) does the source give for Cc1cc(/C=C/C#N)cc(C)c1Nc1ccnc(Nc2ccc(C#N)cc2)n1.Cl [rilpivirine, Rilpivirine HCl] here?
**A.** decreased

**Q.** What about the “intrinsic dissolution rate of rilpivirine” value (in the presence of emtricitabine and/or tenofovir DF) of the same molecule?
**A.** increased
